Assay results reported in patent US11607422B2, “Uttroside B and derivatives thereof as therapeutics for hepatocellular carcinoma” (Rajiv Gandhi Centre for Biotechnology, an Autonomous …, priority 2016, dated 2023).

How the values were obtained:
[1] = test system: HCT-116; assay: MTT cell viability assay in HCT-116 cells; assay type: cell-based; settings: 72 h
Description: (§1) FIG. 2A is a graph comparison of IC50 of Uttroside B in a panel of cancer cells of different origin. The cancer cell lines HeLa, A375, HepG2, MDA-MB-231, HL 60, A549 and HCT116 were treated with Uttroside B as indicated, incubated for 72 h and the cell viability was assessed by MTT assay. FIG. 2B is a graph showing dose dependent effect of Uttroside B in the liver cancer cell lines and in normal immortalized hepatocytes. The liver cancer cell lines HepG2, Hep3B, SKHEP-1, Huh-7 and normal hepatocytes (Chang liver), were treated with Uttroside B incubated for 72 h and the cell viability was assessed by MTT assay. FIG. 2C is a graph comparison of IC50 of Uttroside B with sorafenib. HepG2 cells were treated with Uttroside B as indicated, incubated for 72 h, and the cell viability was assessed by MTT assay. […] The clones developed were counted and plotted as a graph. Colony containing more than four cells was counted as one clone. […]
MTT [3-(4,5-dimethylthiazole-2-yl)-2,5-diphenyltetrazolium bromide] assay is a standard colorimetric assay, suitable for analyzing proliferation, viability, and cytotoxicity. […] At the end of incubation, the optical density was measured at 570 nm using ELISA plate reader (Bio-Rad). The relative cell viability in percentage was calculated as (A570 of treated samples/A570 of untreated samples)×100. […]

[2] = test system: A375; assay: MTT cell viability assay in A375 cells; assay type: cell-based; settings: 72 h
Description: as §1
MTT [3-(4,5-dimethylthiazole-2-yl)-2,5-diphenyltetrazolium bromide] assay is a standard colorimetric assay, suitable for analyzing proliferation, viability, and cytotoxicity. […] After overnight incubation, cells were treated with different concentrations of organic extracts (25-250 μg/ml) of S. nigrum and the isolated compound Uttroside B (250-1250 nM) for 72 h and cytotoxicity was measured. […]

[3] = test system: HepG2 cells; assay: Acridine orange staining for acidic vesicular organelles; assay type: cell-based, human; settings: HepG2, cytotoxic concentration, 24 h
Description: The presence of acidic vesicles, which are characteristics of autophagosome can be analyzed using this method. Acridine orange stains the nucleus green and the acidic vesicular organellae (AVOs) as red.^32 To detect the presence of AVOs in HepG2 cells, 5×10^3 were seeded in 96 well plates, and treated with Uttroside B and incubated for 24 h. The cells were rinsed with 1× PBS twice. The treated cells were then stained with acridine orange, which was added at a final concentration of 1 μg/mL and incubated for 15 min and immediately photographed using a fluorescent microscope.
FIG. 18 is a representative image showing that Uttroside B induces acidic vacuole formation in HepG2 cells by Acridine orange staining. To further confirm the autophagic induction by Uttroside B in HepG2 cells, the cells were exposed to cytotoxic concentration of Uttroside B for a period of 24 h and stained with Acridine orange dye. AO orange stains nucleus green and acidic vesicular organelle, mainly autophagosome, bright red. It crosses into acidic compartments and becomes protonated. The protonated dye stacks and stacked acridine orange emits in the red range.

[4] = test system: Swiss albino mice; assay: Acute toxicity study; assay type: in vivo
Description: Toxicological evaluation:a. Animals: Six to eight-week-old female Swiss albino mice (18-22 g) were obtained from the Animal Research Facility of Rajiv Gandhi Centre for
Biotechnology and the study was performed under protocols approved by Institutional Animal Ethical Committee of Rajiv Gandhi Centre for Biotechnology (IAEC No: 151 (a)/RUBY/2012) b. Acute toxicity study: Swiss albino mice were randomly divided into 3 groups of 6 animals each and were allowed to acclimatize for a week. Group I was taken as the control, which received only vehicle, while Group II and III received a single dose of Uttroside B dissolved in PBS (10 mg/kg and 50 mg/Kg body weight respectively). The mice were observed continuously for 1 h, for any gross behavioral changes and death, and then intermittently for the next 6 h and 24 h. The animals were observed frequently for the next 7 days from the day of treatment after which, the animals were euthanized in a CO2 chamber. The blood serum was collected for analyzing biochemical parameters of liver function, the abnormal values of which are indicative of toxicity. The liver was fixed in 10% buffered formalin and the thin cryostat sections (LEICA CM 1850UV Cryostat) were stained with haematoxylin and eosin for histopathological evaluation.^17

[5] = test system: HeLa cells; settings: literature ref 12; read-out: IC50, cytotoxicity against HeLa (cervical cancer cells); cited from earlier work
[6] = 10 mg/kg and 50 mg/kg single dose

C[C@H](CC[C@@]1(O)O[C@H]2C[C@H]3[C@@H]4CC[C@H]5C[C@@H](O[C@@H]6O[C@H](CO)[C@H](O[C@@H]7O[C@H](CO)[C@@H](O)[C@H](O[C@@H]8OC[C@@H](O)[C@H](O)[C@H]8O)[C@H]7O[C@@H]7O[C@H](CO)[C@@H](O)[C@H](O)[C@H]7O)[C@H](O)[C@H]6O)CC[C@]5(C)[C@H]4CC[C@]3(C)[C@H]2[C@@H]1C)CO[C@@H]1O[C@H](CO)[C@@H](O)[C@H](O)[C@H]1O [Uttroside B]
IC50 [1]: 6 µM | IC50 [2]: 1.6 µM | acidic vacuole formation (Acridine orange) [3]: AO positivity, a preliminary indication of increased autophagosomes was clearly visible | histopathological analysis of liver tissue, acute ([4]; 10 mg/kg and 50 mg/kg): did not manifest any morphological change characteristic of toxicity | behavior [4, 6]: did not exhibit any abnormal behavior | serum levels of AST, ALT and ALP [4, 6]: did not show any deviation in the serum levels | liver tissue changes at five times the treatment dose ([4]; 50 mg/kg, acute, reversible changes): micro vesicular fatty changes | gross adverse response (body weight, fur, behavior, food intake) ([4]; up to 5 times dose): failed to exhibit any signs of cumulative adverse response | IC50 [5]: 15.4 µM
